Among the data in ChEMBL document CHEMBL1201862, “PubChem BioAssay data set” (2004) are IC50, AC50 and EC50 values, retold here.

The term IC50 denotes the midpoint of a concentration-inhibition curve. For orientation: AC50 means the concentration giving half of the maximal activity seen. In general, EC50 refers to the concentration needed to bring the measured effect to its halfway point.

Molecules are shown by their SMILES. Calls of active or inactive are those of the source.

For one test, the system named is CHO-K1. Briefly: Counterscreen for antagonists of the orexin 1 receptor (OX1R; HCRTR1): Homogeneous time resolved fluorescence (HTRF)-based cell-based dose response assay to identify antagonists of the parental CHO-K1 cell line. [Related pubchem assays (depositor defined):AID434989, AID435008, AID463079, AID485270, AID492963, AID492964, AID492965, AID493232, AID504699, AID504701]. It is filed as functional. The conditions noted are these: Cricetulus griseus.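 Further: potency for inhibition of ATP-stimulated IP1 production as antagonists.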

A short description of test [1]: Counterscreen for antagonists of the orexin 1 receptor (OX1R; HCRTR1): Fluorescence-based cell-based high throughput dose response assay to identify antagonists of the parental CHO cell line. [Related pubchem assays (depositor defined):AID434989, AID435008, AID463079, AID485270, AID492963, AID492964, AID492965, AID493232, AID504699, AID504701]. It is filed as functional. (In general: The purpose of a counterscreen is to sort out artefacts and off-target activity.)

The target in test [2] is T1, Orexin/Hypocretin receptor type 1 (Homo sapiens, UniProt O43613). Kind of test: Homogeneous Time Resolved Fluorescence (HTRF)-based cell-based high throughput dose response assay for antagonists of the orexin 1 receptor (OX1R; HCRTR1). [Related pubchem assays (depositor defined):AID434989, AID435008, AID463079, AID485270, AID492963, AID492964, AID492965, AID493232, AID504717, AID504718]. The format is functional.

In test [3] the target is T1, Orexin/Hypocretin receptor type 1. Briefly: Fluorescence-based cell-based high throughput dose response assay for antagonists of the orexin 1 receptor (OX1R; HCRTR1). [Related pubchem assays (depositor defined):AID434989, AID435008, AID463079, AID485270, AID492963, AID492964, AID492965, AID493232, AID504717, AID504718]. It is filed as functional.
The target in test [4] is T2, Orexin receptor type 2 (Homo sapiens, UniProt O43614). Briefly: Counterscreen assay for antagonists of the orexin 1 receptor (OX1R; HCRTR1): Fluorescence-based cell-based dose response assay for antagonists of the orexin 2 receptor (OX2R; HCRTR2), run by assay provider. It is filed as functional.
Test [5] deals with T2, Orexin receptor type 2. Briefly: Counterscreen assay for antagonists of the orexin 1 receptor (OX1R; HCRTR1): Homogeneous Time Resolved Fluorescence (HTRF)-based cell-based dose response assay for antagonists of the orexin 2 receptor (OX2R; HCRTR2), run by assay provider. It is filed as functional.
Test [6] addresses T3, Sentrin-specific protease 8 (Homo sapiens, UniProt Q96LD8).
T3 sequence (Q96LD8 whole entry): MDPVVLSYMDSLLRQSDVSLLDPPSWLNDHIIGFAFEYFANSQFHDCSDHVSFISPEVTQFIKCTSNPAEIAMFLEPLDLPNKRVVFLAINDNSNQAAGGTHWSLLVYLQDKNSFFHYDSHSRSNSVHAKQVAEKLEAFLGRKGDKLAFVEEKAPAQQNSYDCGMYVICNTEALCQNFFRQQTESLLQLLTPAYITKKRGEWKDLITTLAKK
Kind of test: inhibition of human SENP8 cleavage activity – biochemical, luminescence, SAR follow-up (AID 504501). The format is functional.

Another test concerns the target T4, Caspase-3 (Homo sapiens, UniProt P42574).
T4 sequence (P42574 whole entry): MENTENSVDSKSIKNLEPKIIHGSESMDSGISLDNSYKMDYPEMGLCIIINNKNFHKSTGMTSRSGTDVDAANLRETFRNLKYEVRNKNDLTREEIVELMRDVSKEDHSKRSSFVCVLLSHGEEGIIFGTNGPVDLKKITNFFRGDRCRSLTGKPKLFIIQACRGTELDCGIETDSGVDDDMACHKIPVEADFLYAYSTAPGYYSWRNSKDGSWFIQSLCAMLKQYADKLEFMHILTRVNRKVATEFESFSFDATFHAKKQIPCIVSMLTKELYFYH
Briefly: SAR Analysis of small molecule inhibitors of Sentrin-specific proteases (SENPs) using a Caspase-3 Selectivity assay. [Related pubchem assays (depositor defined):AID2540, AID2599, AID434973, AID489001]. The format is functional.

Test [7] deals with T5, Sentrin-specific protease 6 (Homo sapiens, UniProt Q9GZR1).
T5 sequence (Q9GZR1 whole entry): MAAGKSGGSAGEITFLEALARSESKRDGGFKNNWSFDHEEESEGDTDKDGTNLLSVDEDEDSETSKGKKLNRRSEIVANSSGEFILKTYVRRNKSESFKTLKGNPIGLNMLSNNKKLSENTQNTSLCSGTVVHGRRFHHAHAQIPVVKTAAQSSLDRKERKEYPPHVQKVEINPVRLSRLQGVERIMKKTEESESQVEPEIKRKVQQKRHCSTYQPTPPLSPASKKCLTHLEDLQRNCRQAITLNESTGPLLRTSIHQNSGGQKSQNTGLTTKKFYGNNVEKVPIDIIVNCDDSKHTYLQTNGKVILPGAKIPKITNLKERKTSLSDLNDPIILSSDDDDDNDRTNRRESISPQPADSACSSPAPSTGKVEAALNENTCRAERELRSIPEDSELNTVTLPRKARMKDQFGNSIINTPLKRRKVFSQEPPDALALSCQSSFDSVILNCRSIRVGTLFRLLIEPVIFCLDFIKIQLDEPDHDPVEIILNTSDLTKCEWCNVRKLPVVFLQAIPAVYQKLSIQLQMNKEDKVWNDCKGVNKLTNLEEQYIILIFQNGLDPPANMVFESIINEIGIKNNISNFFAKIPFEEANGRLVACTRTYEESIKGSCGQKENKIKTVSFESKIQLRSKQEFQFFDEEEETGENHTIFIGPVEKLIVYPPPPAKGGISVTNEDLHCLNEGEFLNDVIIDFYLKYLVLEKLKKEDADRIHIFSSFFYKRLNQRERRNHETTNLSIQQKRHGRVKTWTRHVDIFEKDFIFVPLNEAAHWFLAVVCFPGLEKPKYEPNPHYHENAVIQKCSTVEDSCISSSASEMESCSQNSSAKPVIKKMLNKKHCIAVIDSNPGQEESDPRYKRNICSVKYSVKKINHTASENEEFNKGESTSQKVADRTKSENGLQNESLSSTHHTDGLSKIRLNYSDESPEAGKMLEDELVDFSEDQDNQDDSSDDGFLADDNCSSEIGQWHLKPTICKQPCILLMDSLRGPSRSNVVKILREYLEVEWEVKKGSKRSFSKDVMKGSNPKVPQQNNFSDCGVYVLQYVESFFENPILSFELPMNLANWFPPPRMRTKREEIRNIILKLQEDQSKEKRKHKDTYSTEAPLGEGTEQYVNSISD
Briefly: SAR Analysis of small molecule inhibitors of Sentrin-specific protease 6 (SENP6) using a Luminescent assay. [Related pubchem assays (depositor defined):AID2582, AID2599]. The format is functional.

For test [8], the target named is T6, Sentrin-specific protease 7 (Homo sapiens, UniProt Q9BQF6).
T6 sequence (Q9BQF6 whole entry): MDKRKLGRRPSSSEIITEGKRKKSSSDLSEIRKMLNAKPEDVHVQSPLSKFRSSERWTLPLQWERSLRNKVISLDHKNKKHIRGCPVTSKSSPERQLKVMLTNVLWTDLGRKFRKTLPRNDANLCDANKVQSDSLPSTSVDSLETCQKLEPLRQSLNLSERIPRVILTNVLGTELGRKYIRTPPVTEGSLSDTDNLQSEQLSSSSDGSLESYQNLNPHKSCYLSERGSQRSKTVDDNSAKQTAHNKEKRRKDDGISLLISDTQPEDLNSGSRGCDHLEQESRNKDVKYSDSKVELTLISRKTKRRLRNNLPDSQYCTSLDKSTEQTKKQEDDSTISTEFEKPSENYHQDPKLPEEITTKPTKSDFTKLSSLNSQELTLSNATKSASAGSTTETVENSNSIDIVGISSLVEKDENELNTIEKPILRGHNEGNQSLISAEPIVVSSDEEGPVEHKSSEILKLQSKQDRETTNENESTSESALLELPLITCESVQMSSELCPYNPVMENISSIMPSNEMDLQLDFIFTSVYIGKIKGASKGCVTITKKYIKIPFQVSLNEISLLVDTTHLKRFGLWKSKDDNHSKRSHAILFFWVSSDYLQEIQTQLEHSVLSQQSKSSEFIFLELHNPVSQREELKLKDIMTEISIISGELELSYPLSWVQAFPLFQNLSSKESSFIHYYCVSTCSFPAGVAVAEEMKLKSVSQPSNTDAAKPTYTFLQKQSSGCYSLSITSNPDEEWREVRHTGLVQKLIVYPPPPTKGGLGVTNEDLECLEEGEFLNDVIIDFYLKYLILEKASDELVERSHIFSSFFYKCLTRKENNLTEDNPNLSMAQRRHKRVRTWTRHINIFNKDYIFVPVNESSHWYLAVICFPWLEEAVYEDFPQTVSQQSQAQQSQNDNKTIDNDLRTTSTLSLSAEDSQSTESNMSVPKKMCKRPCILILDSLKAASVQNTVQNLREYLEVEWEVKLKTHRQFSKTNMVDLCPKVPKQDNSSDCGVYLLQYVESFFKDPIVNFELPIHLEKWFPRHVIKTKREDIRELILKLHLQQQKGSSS
Kind of test: inhibition of human SENP7 cleavage activity – biochemical, luminescence, SAR follow-up (AID 504497). It is filed as functional.

The subject of another test is INS1. Briefly: suppression of NO production in INS-1E cells – cell-based, Griess absorbance, dry powder, set 2, dose response (AID 488868). It is filed as functional. The conditions noted are these: Rattus norvegicus.
Test [9] is described as follows: Luminescence Cell-Based Dose Retest to Confirm Inhibitors of Cancer Stem Cells. [Related pubchem assays (depositor defined):AID2717, AID2721]. It is filed as functional. The conditions noted are these: Homo sapiens.
In test [10] the target is T7, Insulin-degrading enzyme (Homo sapiens, UniProt P14735). Briefly: recombinant IDE activation, cell-free – biochemical, fluorescence polarization, counter-screen for IDE activator project, dose response (AID 588681).
The target in test [11] is T7, Insulin-degrading enzyme. Kind of test: cellular IDE activation of Abeta substrate cleavage – fluorescence polarization, HEK cells, dose response (AID 588439). It is filed as functional, cell-based.
Test [12] relates to HEK293. Kind of test: membrane integrity loss in HEK cells – cell-based, fluorescence, cytotoxicity control for IDE activator project, dose response (AID 588440).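 Further: cytotoxicity by LDH release measuring loss of membrane integrity.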 It is filed as functional. The conditions noted are these: Homo sapiens.
Test [13] has as its system HEK293. Briefly: optical interference in Abeta FP readout, dose response, artefact control for IDE activator project, biochemical, fluorescence polarization (AID 588442). The format is functional, cell-based. The conditions noted are these: Homo sapiens. For orientation: Polarisation of emitted light reports the rotation of a fluorescent probe.

T1 sequence (O43613 whole entry): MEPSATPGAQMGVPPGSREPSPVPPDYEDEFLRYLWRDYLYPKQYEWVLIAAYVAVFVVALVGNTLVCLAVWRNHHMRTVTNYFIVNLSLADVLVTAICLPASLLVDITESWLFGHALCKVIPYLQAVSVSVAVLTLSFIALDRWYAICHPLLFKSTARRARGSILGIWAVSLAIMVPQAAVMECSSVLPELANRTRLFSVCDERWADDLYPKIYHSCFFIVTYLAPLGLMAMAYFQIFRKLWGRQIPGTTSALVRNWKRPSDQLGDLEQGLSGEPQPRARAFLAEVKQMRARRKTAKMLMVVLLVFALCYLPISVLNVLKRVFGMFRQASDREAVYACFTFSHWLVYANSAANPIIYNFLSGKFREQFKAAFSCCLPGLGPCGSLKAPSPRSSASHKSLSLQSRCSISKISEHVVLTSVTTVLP
T7 sequence (P14735 whole entry): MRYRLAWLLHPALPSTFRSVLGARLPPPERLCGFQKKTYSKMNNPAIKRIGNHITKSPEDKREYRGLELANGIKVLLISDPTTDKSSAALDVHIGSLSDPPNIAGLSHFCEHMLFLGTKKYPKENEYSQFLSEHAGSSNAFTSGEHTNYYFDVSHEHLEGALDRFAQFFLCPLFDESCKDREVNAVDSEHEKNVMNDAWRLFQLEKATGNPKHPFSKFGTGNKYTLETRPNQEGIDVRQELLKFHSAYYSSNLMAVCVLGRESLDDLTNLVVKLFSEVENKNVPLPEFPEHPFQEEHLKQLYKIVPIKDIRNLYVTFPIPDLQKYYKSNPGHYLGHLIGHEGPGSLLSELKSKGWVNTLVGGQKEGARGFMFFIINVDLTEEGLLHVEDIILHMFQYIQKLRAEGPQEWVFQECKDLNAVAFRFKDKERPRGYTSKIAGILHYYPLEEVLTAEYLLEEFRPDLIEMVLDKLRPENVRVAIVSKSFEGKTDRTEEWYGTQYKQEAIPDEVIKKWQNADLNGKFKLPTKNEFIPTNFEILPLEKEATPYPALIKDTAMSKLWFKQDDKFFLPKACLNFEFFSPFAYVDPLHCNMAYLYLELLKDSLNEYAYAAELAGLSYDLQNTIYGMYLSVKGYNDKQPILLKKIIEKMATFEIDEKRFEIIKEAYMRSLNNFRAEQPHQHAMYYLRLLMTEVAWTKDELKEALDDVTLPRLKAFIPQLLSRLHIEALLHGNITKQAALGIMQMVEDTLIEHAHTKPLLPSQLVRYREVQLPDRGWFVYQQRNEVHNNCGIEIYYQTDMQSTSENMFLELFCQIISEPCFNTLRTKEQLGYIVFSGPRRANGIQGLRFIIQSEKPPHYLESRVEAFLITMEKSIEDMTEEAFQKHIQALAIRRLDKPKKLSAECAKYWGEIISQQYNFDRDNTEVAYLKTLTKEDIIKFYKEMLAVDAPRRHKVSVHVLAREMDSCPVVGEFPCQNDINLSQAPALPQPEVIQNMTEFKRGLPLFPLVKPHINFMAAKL
T2 sequence (O43614 whole entry): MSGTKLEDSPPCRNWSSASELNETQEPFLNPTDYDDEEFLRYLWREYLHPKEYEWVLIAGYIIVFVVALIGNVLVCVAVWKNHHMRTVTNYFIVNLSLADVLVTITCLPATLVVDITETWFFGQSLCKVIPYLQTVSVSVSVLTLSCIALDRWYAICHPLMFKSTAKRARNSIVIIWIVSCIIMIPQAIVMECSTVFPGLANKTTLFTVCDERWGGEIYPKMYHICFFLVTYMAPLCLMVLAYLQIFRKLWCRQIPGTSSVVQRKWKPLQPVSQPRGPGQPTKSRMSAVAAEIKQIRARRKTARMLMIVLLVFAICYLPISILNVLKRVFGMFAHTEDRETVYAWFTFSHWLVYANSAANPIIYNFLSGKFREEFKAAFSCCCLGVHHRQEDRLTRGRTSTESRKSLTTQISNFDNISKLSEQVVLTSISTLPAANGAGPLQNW

In the case of `Cc1cc(Cl)ccc1OCCCC(=O)NCCN1C(=O)S/C(=C\c2cccnc2)C1=O`, the IC50 with CHO-K1 was > 66.2 µM (inactive); in test [1], 21.1 µM (inactive); in test [2], 0.264 µM (active); in test [3], 1.13 µM (active); at Orexin receptor type 2 [4], 17.5 µM (inactive); at Orexin receptor type 2 [5], > 50 µM (inactive).
For the compound `CCC(=O)Nc1ccc2oc(-c3ccc(Cl)cc3)nc2c1`, the IC50 in test [6] was 1.76 µM (active); at Caspase-3, 2.27 µM (active); in test [7] it was 1.81 µM (active); in test [8] it was 1.31 µM (active).
For `C[C@@H]1CN([C@@H](C)CO)C(=O)c2cccc(NC(=O)Nc3cccc4ccccc34)c2O[C@H]1CN(C)S(=O)(=O)c1cccs1`, in the test with INS1, the AC50 is 206 µM (active).
On to `C=CCN1C(=O)/C(=C2\C(=O)Nc3ccccc32)S/C1=N/c1ccc(O)cc1`, for which the AC50 in test [9] was 4.14 µM (active). Also, the EC50 is > 54.7 µM (inactive) on Insulin-degrading enzyme [10], 16.6 µM (inactive) at Insulin-degrading enzyme [11] and > 54.7 µM (inactive) in the test with HEK293 [13]. Moreover, the IC50 in the test with HEK293 [12] is 26.6 µM (inactive).
